# Laboratory results: patent US20240285773A1, “METHODS OF TREATING MYELODYSPLASTIC SYNDROME AND MONITORING THE TREATMENT” (Geron Corporation, priority 2023, published 2024)
# Values joined by “and” are separate entries in the source; they are usually repeats but may differ in a detail not shown here. Equal values may be shown once. Read-outs that look alike come from different tables or passages of the source. [nps] = N3'→P5' thiophosphoramidate linkage; {Palm} = palmitoyl lipid
# Experiments:
# bone marrow RS cells = experiment: Reduction in bone marrow ring sideroblasts; set-up: species or system human; settings: in vivo
# Text: FIG. 20. […] Also, RBC-TI responders were higher in patients achieving ≥50% reduction in central bone marrow RS.
# [1] = test system: RBC transfusion-dependent patients with IPSS low or intermediate-1 risk MDS
# [2] = test system: patients with baseline cytogenetic abnormality; experiment: Phase 3 trial: cytogenetic response per IWG 2006; assay type: in vivo, human
# Text: The primary end point was rate of RBC-TI for 8 consecutive weeks or longer. Key secondary end points included rate of 24-week TI, duration of TI, and the rate of hematologic response (hematologic improvement-erythroid [HI-E], based on modified International Working Group [IWG] 2006 criteria, and HI-E per revised IWG 2018). Additional secondary end points included relative change in number of RBC transfusions received by patients, relative change in hemoglobin, and safety. The changes in mutational status and in patient-reported fatigue over time (assessed by the Functional Assessment of Chronic Illness Therapy [FACIT] Fatigue Scale) were exploratory end points. Subgroup analyses were performed including baseline presence or absence of RS, prior RBC transfusion burden (≥4 to ≤6 or >6 RBC units/8-weeks during a 16-week period prior to randomization), and low or intermediate-1 IPSS risk categories. Subgroup analyses were also performed, including baseline mutation status as well as telomerase activity (TA), telomere lengths (TL), and human telomerase reverse transcriptase (hTERT) levels. Peripheral blood hematology, bone marrow evaluation, mutation assessment, and cytogenetic evaluation were performed centrally and responses assessed by an independent review committee (IRC). Rate of 1-year RBC-TI was reported as a post hoc analysis.
# As noted above, patients with heavily RBC-TD-ESA relapsed/refractory or ineligible non-del(5q) LR-MDS naive to lenalidomide and hypomethylating agents (len/HMA) received 2-hr infusion of imetelstat 7.5 mg/kg or placebo every 4 weeks. An independent review committee assessed abnormal cytogenetic profiles of bone marrow samples taken pre- and every 24 weeks post-treatment to assess cytogenetic response of complete or partial remission. Of the 178 randomized patients, 22.0% in the imetelstat group and 21.7% in the placebo group had baseline cytogenetic abnormalities and post-treatment samples.
# TET2 = experiment: Gene mutation analysis (NGS): TET2 VAF and clinical response; assay type: in vivo, human; settings: imetelstat group
# Text: (§1) VAF for the target genes can be determined and/or measured using any convenient methods. In one such method, whole blood collected in an EDTA tube is used to perform Next Generation Sequencing (NGS), for example, using LeukoVantage®. NGS using any other sequencing platform can be used, for example, nanopore sequencing, paired-end sequencing, Ion Torrent sequencing, and single molecule real time (SMRT) sequencing. An MDS gene panel can be used. For example, a gene panel containing one or more of SF3B1, TET2, DNMT3A and ASXL1 can be used. […] The percentage of mutation reads will be reported and can be used to assess the size of the clonal population. VAF is the percentage of sequence reads observed matching a specific DNA variant divided by the overall coverage at that locus. […]
# (§2) VAF changes were assessed from blood taken pre- and every 12 weeks post-treatment in patients with greater than or equal to 5% variant allele at baseline and >1 post-baseline assessment. T-tests evaluated group comparison, Fisher's exact test evaluated association, and linear regression evaluated correlation. […]
# (§3) Blood samples were collected at baseline and during study visits approximately every 12 weeks. […] The lower limit of sensitivity is 5% mutated alleles in a mixed population; the percentage of mutation reads is reported and used to assess the size of the clonal population.
# DNMT3A = experiment: Gene mutation analysis (NGS): DNMT3A VAF and clinical response; assay type: in vivo, human; settings: imetelstat group
# Text: as §1, §2, §3
# [3] = by lab assessment, listed as imetelstat
# [4] = 26 patients with baseline abnormality
# [5] = ≥1-year TI responders with baseline abnormality (7)
substance,measurement,setting,value
"Imetelstat: first-in-class telomerase inhibitor; synthetic lipid-conjugated 13-mer oligonucleotide N3′→P5′-thiophosphoramidate (TAGGGTTAGACAA; all [nps], 5' {Palm}, sugars by position and methylation of C not given here)",Patients achieving ≥50% reduction in bone marrow RS cells,bone marrow RS cells,41%
same,"Thrombocytopenia, maximum postbaseline CTCAE Grade 4",[1]; Cycle 10-12 (N=53),0 No. of Patients
same,"ALP abnormality, Grade 3-4",[1]; N=118,0 No. of patients
same,Serious TEAE: Abscess limb,[1]; N=118,0 No.
same,Patients with any dose reduction,"[1]; N=118, listed as imetelstat",49%
same,Withdrawal TEAE: Neutropenia,"[1]; N=118, listed as imetelstat",5%
same,Withdrawal TEAE: Thrombocytopenia,"[1]; N=118, listed as imetelstat",3%
same,"Asthenia, Grade 3-4","[1]; TEAE, N=118",0 No. of patients
same,"Constipation, Grade 3-4","[1]; TEAE, N=118",0 No. of patients
same,"Edema peripheral, Grade 3-4","[1]; TEAE, N=118",0 No. of patients
same,G3/4 Neutropenia events,[1]; by lab assessment,279 no. of events
same,G3/4 Neutropenia median duration,[1]; by lab assessment,1.86 Weeks
same,G3/4 Thrombocytopenia events,[1]; by lab assessment,212 no. of events
same,G3/4 Thrombocytopenia median duration,[1]; by lab assessment,1.43 Weeks
same,G3/4 Neutropenia median duration,[1]; [3],1.9 Weeks
same,G3/4 Thrombocytopenia median duration,[1]; [3],1.4 Weeks
same,Dose delays due to neutropenia,[1]; in vivo,50.8%
same,Dose delays due to thrombocytopenia,[1]; in vivo,46.6%
same,Dose reductions due to neutropenia,[1]; in vivo,33.1%
same,Dose reductions due to thrombocytopenia,[1]; in vivo,22.9%
same,Patients with cytopenias reversible to Grade ≤2 within 4 weeks,[1]; in vivo,more than 80%
same,Discontinued: Progressive disease,[1]; n=118,6%
same,Grade 3-4 neutropenia,[1]; patients with TI ≥1 year,95%
same,"Grade 3-4 neutropenia, patients",[1]; patients with TI ≥1 year,20 patients
same,Grade 3-4 thrombocytopenia,[1]; patients with TI ≥1 year,67%
same,"Grade 3-4 thrombocytopenia, patients",[1]; patients with TI ≥1 year,14 patients
same,"Grade 3/4 neutropenia events, mean (SD) duration",[1]; patients with TI ≥1 year,1.78 (1.58) weeks
same,Grade 3/4 neutropenia reversible to grade ≤2 within 4 weeks,[1]; patients with TI ≥1 year,81%
same,"Grade 3/4 thrombocytopenia events, mean (SD) duration",[1]; patients with TI ≥1 year,2.25 (2.48) weeks
same,Grade 3/4 thrombocytopenia reversible to grade ≤2 within 4 weeks,[1]; patients with TI ≥1 year,89%
same,G3/4 Neutropenia resolved <4 weeks,[1]; resolved to ≤ Grade 2,81%
same,G3/4 Thrombocytopenia resolved <4 weeks,[1]; resolved to ≤ Grade 2,86%
same,Cytogenetic CR or PR,[2]; [4],(35) %
same,"Cytogenetic CR or PR, patients",[2]; [4],9 N
same,Cytogenetic complete response (CR),[2]; [4],(19) %
same,"Cytogenetic complete response (CR), patients",[2]; [4],5 N
same,Cytogenetic partial response (PR),[2]; [4],(15) %
same,"Cytogenetic partial response (PR), patients",[2]; [4],4 N
same,Cytogenetic response not evaluable,[2]; [4],(46) %
same,"Cytogenetic response not evaluable, patients",[2]; [4],12 N
same,Does not meet cytogenetic CR or PR criteria,[2]; [4],(19) %
same,"Does not meet cytogenetic CR or PR criteria, patients",[2]; [4],5 N
same,Cytogenetic CR or PR,"[2]; 26 patients with baseline abnormality, listed as imetelstat",35% and 34.6%
same,"Cytogenetic CR or PR, % difference vs placebo",[2]; in vivo,"19% (−16, 44)"
same,"Did not meet the response criteria, patients",[2]; [5],1 patient
same,cCR,[2]; [5],57%
same,"cCR, patients",[2]; [5],4 patients
same,cPR,[2]; [5],29%
same,"cPR, patients",[2]; [5],2 patients
same,Pearson's r: maximum % reduction in TET2 VAF vs maximum change in hemoglobin,TET2; n=32,−0.659
same,Pearson's r: maximum % reduction in TET2 VAF vs duration of TI,TET2; n=38,−0.577
same,Pearson's r: maximum % reduction in DNMT3A VAF vs maximum change in hemoglobin,DNMT3A; n=13,−0.667
same,Pearson's r: maximum % reduction in DNMT3A VAF vs duration of TI,DNMT3A; n=18,−0.545
